Measured values as given in publication PMC9154759 (2022).

Tested on: aptamer 1 (DNA, aptamer) GGGAGCTCAGAATAAACGCTCAATACTATCGCGGAGACAGCGCGGGAGGCACCGGGGAGATCCGGGCCTCATGTCGAA
Assay: berberine fluorescence enhancement (ex 365 nm, em 530 nm)
Details: 37 °C, 30 min; 50 μg/mL berberine, 0-280 nM aptamer, plateau at 200 nM; binding buffer not stated

COc1ccc2cc3[n+](cc2c1OC)CCc1cc2c(cc1-3)OCO2
binding: yes
